Measured values taken from patent publication US20080248040A1, “Nucleic Acid Molecules Encoding Novel Human Low-Voltage Activated Calcium Channel Proteins, Designed-Alpha 1I-1 and Alpha 1I-2, Encoded Proteins and Methods of Use Thereof” (priority 2003, published 2008).

Key:
[1] = target: T1, human calcium channel α1I subunit (α1I channel) (Homo sapiens, UniProt Q9P0X4, I1040V); test: Calcium influx measured by FLIPR in B21 cells; format: cell-based; details: for IC50: B21 cell induced by 0.1 uM tetracycline, mean ± S.E., n=3, read-out: IC50 for inhibition of calcium influx
T1 construct: expressed in transfected cells
T1 sequence (Q9P0X4 1-1981 isoform Q9P0X4-3 I1005V): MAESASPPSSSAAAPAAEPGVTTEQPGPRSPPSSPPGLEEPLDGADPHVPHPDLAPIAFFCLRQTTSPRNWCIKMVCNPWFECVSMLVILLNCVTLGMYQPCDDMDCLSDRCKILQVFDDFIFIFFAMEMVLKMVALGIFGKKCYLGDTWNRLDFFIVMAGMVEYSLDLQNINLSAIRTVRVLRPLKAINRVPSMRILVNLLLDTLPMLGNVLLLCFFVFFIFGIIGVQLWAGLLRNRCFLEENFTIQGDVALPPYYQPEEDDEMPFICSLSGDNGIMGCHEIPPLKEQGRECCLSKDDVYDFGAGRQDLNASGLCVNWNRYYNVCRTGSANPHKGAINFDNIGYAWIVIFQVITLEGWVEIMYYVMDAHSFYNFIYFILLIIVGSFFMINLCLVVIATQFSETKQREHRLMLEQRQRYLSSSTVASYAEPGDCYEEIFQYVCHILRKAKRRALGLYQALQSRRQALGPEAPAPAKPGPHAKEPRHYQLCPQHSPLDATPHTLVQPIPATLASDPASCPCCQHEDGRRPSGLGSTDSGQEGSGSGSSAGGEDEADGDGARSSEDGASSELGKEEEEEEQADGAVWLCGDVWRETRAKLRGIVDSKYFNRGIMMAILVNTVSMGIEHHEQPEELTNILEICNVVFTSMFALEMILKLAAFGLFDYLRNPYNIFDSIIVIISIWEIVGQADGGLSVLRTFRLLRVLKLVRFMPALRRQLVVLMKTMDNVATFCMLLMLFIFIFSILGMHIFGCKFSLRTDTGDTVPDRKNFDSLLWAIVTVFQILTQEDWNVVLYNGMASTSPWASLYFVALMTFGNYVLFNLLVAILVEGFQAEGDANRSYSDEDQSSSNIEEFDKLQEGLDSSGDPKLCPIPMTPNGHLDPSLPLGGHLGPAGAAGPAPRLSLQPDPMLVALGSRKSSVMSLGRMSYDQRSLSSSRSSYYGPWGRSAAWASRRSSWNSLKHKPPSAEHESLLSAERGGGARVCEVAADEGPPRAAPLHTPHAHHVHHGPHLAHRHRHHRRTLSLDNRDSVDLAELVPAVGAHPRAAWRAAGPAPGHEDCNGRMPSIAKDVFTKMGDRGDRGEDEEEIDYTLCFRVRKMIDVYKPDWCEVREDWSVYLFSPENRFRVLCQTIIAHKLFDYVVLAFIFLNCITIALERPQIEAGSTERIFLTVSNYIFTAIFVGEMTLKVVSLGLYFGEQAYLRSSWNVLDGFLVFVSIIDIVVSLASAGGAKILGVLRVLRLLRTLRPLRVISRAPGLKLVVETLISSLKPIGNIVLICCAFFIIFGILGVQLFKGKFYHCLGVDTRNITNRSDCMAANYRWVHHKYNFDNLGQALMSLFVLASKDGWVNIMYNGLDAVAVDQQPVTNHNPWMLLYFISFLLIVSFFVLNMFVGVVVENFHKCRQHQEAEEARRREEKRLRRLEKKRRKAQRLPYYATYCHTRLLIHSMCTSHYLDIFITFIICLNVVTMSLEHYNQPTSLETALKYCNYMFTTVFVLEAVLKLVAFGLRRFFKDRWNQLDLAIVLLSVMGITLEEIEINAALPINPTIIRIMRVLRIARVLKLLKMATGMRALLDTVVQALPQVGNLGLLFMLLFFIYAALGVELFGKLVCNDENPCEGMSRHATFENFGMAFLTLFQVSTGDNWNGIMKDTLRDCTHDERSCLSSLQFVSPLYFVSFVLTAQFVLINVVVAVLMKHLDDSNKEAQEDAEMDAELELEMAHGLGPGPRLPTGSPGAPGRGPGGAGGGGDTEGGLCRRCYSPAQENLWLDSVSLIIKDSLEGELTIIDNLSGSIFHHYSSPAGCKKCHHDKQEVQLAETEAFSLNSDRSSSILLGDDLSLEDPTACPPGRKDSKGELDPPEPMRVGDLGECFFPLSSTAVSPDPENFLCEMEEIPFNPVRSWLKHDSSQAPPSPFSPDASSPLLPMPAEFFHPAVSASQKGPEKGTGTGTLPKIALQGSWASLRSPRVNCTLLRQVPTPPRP
Description: Intracellular calcium concentration was monitored by the FLIPR™ technique (Molecular Devices, Sunnyvale, Calif.). Briefly, the cells were seeded into black 96 well plates with clear bottoms at a density of 35,000 cells/well and cultured for 5 hr.

[2] = target: α1I T-type calcium channel (Homo sapiens, UniProt Q9P0X4, I1040V); test: Whole-cell patch clamp (voltage-clamp) recordings on the B21 cell line
Sequence of α1I T-type calcium channel (Q9P0X4 1-1981 isoform Q9P0X4-3 I1005V): as above

[3] = tested on: T-type currents in thalamic (ventrobasal complex) neurons; details: physiologically relevant doses; Coulter et al. 1989; cited from earlier work
[4] = tested on: T-type Ca^2+ current in DRG neurons; details: freshly dissected DRG neurons of adult rats; Todorovic and Lingle 1998; cited from earlier work

**Q.** With `[Ca+2]` [Ca^2+] as the compound, how does the EC50 ([1]; B21 cells induced by 0.1 μM tetracycline, read-out: EC50 of Ca^2+ influx after Ca^2+ addition) read?
**A.** 1000 µM

**Q.** Which IC50 [1] does the source give for `COCCOC(=O)C1=C(C)NC(C)=C(C(=O)OC(C)C)C1c1cccc([N+](=O)[O-])c1` (centres unmarked) [Nimodipine] here?
**A.** 9.51 ± 0.788 µM

**Q.** Which IC50 [1] does the source give for `O=c1[nH]c2ccccc2n1C1CCN(CCCC(c2ccc(F)cc2)c2ccc(F)cc2)CC1` [Pimozide] here?
**A.** 1 ± 0.109 µM

**Q.** What about the “% Inhibition (Ave ± SEM) of peak calcium current” value ([2]; 100 nM antagonist, −100 mV holding potential) of the same compound?
**A.** 32 ± 2%

**Q.** And the potency estimated from few doses ([2]; read-out: Est IC50)?
**A.** 0.216 µM

**Q.** With `CC1(C)OC(=O)NC1=O` [dimethadione] as the compound, how does the “effect on T-type currents in thalamic neurons (in words)” value [3] read?
**A.** partially depress

**Q.** Which “effect on T-type currents in thalamic neurons (in words)” value [3] does the source give for `CCC1(C)CC(=O)NC1=O` (centres unmarked) [ethosuximide] here?
**A.** partially depress

**Q.** And the “effect on T-type Ca^2+ current in DRG neurons (in words)” value [4]?
**A.** fully block
